Measured values taken from patent publication US12655116B2, “Substituted isophthalic acid diamides” (Bayer Aktiengesellschaft, priority 2020, dated 2026).

How the values were obtained:
POLCO [1] = test: Pre-emergence herbicidal action against POLCO; type: in vivo, Polygonum convolvulus; conditions: Fallopia convolvulus, 504 h, dosage 80 g/ha
Method in brief: (§1)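 Pre-emergence soil-surface spray of formulated compound (WP or EC; 600 to 800 l/ha; 0.2% wetting agent) over seeds sown in sandy loam. After 3 weeks under greenhouse conditions, damage is estimated visually in percent against untreated plants.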

DIGSA [2] = test: Post-emergence herbicidal action against DIGSA; type: in vivo, Digitaria sanguinalis; conditions: Digitaria sanguinalis, 504 h
Method in brief: (§2)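 Spray, one-leaf stage: WP or EC compound in water, 600–800 l/ha, 0.2% wetting agent. Plants held about 3 weeks in the greenhouse, then visually rated in percent of kill compared with untreated controls.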

POLCO [3] = test: Post-emergence herbicidal action against POLCO; type: in vivo, Polygonum convolvulus; conditions: Fallopia convolvulus, 504 h, dosage 20 g/ha
Method in brief: as §2

ABUTH [4] = test: Pre-emergence herbicidal action against ABUTH; type: in vivo, Abutilon theophrasti; conditions: Abutilon theophrasti, 504 h; for pest or weed control at 80 g/ha: scored visually after 3 weeks vs untreated controls (100% = plants have died, 0% = like control plants)
Method in brief: as §1

STEME [5] = test: Pre-emergence herbicidal action against STEME; type: in vivo, Stellaria media; conditions: Stellaria media, 504 h
Method in brief: as §1

VIOTR [6] = test: Pre-emergence herbicidal action against VIOTR; type: in vivo, Viola tricolor; conditions: Viola tricolor, 504 h; for pest or weed control at 20 g/ha: dosage 20 g/ha; for pest or weed control at 80 g/ha: dosage 80 g/ha
Method in brief: as §1

VIOTR [7] = test: Post-emergence herbicidal action against VIOTR; type: in vivo, Viola tricolor; conditions: Viola tricolor, 504 h
Method in brief: as §2

ECHCG [8] = test: Pre-emergence herbicidal action against ECHCG; type: in vivo, Echinochloa crus-galli; conditions: Echinochloa crus-galli, 504 h
Method in brief: as §1

PHBPU [9] = test: Post-emergence herbicidal action against PHBPU; type: in vivo, Pharbitis purpurea; conditions: Ipomoea purpurea, 504 h; for pest or weed control at 20 g/ha: dosage 20 g/ha
Method in brief: as §2

ABUTH [10] = test: Post-emergence herbicidal action against ABUTH; type: in vivo, Abutilon theophrasti; conditions: Abutilon theophrasti, 504 h, visual assessment about 3 weeks after treatment vs untreated controls; for pest or weed control at 20 g/ha: dosage 20 g/ha
Method in brief: as §2

AMARE [11] = test: Post-emergence herbicidal action against AMARE; type: in vivo, Amaranthus retroflexus; conditions: Amaranthus retroflexus, 504 h, 20 g/ha, visual assessment about 3 weeks after treatment, 100% = plants have died, 0% = like control plants
Method in brief: as §2

SETVI [12] = test: Post-emergence herbicidal action against SETVI; type: in vivo, Setaria viridis; conditions: Setaria viridis, 504 h; for pest or weed control at 5 g/ha: dosage 5 g/ha; for pest or weed control at 20 g/ha: dosage 20 g/ha
Method in brief: as §2

MATIN [13] = test: Pre-emergence herbicidal action against MATIN; type: in vivo, Matricaria inodora; conditions: Tripleurospermum inodorum, 504 h; for pest or weed control at 20 g/ha: dosage 20 g/ha; for pest or weed control at 80 g/ha: dosage 80 g/ha
Method in brief: as §1

ALOMY [14] = test: Pre-emergence herbicidal action against ALOMY; type: in vivo, Alopecurus myosuroides; conditions: Alopecurus myosuroides, 504 h, pre-emergence; for pest or weed control at 80 g/ha: scored visually after 3 weeks vs untreated controls (100% = plants have died, 0% = like control plants)
Method in brief: as §1

PHBPU [15] = test: Pre-emergence herbicidal action against PHBPU; type: in vivo, Pharbitis purpurea; conditions: Ipomoea purpurea, 504 h, dosage 80 g/ha
Method in brief: as §1

AVEFA [16] = test: Post-emergence herbicidal action against AVEFA; type: in vivo, Avena fatua; conditions: Avena fatua, 504 h, 20 g/ha, visual assessment about 3 weeks after treatment, 100% = plants have died, 0% = like control plants
Method in brief: as §2

VERPE [17] = test: Post-emergence herbicidal action against VERPE; type: in vivo, Veronica persica; conditions: Veronica persica, 504 h
Method in brief: as §2

ALOMY [18] = test: Post-emergence herbicidal action against ALOMY; type: in vivo, Alopecurus myosuroides; conditions: Alopecurus myosuroides, 504 h, dosage 20 g/ha, visual assessment about 3 weeks after treatment vs untreated controls
Method in brief: as §2

AVEFA [19] = test: Pre-emergence herbicidal action against AVEFA; type: in vivo, Avena fatua; conditions: Avena fatua, 504 h; 80 g/ha, pre-emergence
Method in brief: as §1

VERPE [20] = test: Pre-emergence herbicidal action against VERPE; type: in vivo, Veronica persica; conditions: Veronica persica, 504 h, dosage 80 g/ha
Method in brief: as §1

DIGSA [21] = test: Pre-emergence herbicidal action against DIGSA; type: in vivo, Digitaria sanguinalis; conditions: Digitaria sanguinalis, 504 h; for pest or weed control at 20 g/ha: dosage 20 g/ha; for pest or weed control at 80 g/ha: dosage 80 g/ha
Method in brief: as §1

ECHCG [22] = test: Post-emergence herbicidal action against ECHCG; type: in vivo, Echinochloa crus-galli; conditions: Echinochloa crus-galli, 504 h; for pest or weed control at 20 g/ha: dosage 20 g/ha
Method in brief: as §2

STEME [23] = test: Post-emergence herbicidal action against STEME; type: in vivo, Stellaria media; conditions: Stellaria media, 504 h
Method in brief: as §2

SETVI [24] = test: Pre-emergence herbicidal action against SETVI; type: in vivo, Setaria viridis; conditions: Setaria viridis, 504 h, dosage 80 g/ha
Method in brief: as §1

MATIN [25] = test: Post-emergence herbicidal action against MATIN; type: in vivo, Matricaria inodora; conditions: Tripleurospermum inodorum, 504 h; for pest or weed control at 5 g/ha: dosage 5 g/ha; for pest or weed control at 20 g/ha: dosage 20 g/ha
Method in brief: as §2

AMARE [26] = test: Pre-emergence herbicidal action against AMARE; type: in vivo, Amaranthus retroflexus; conditions: Amaranthus retroflexus, 504 h, scored visually after 3 weeks vs untreated controls, 100% = plants have died, 0% = like control plants
Method in brief: as §1

LOLRI = test: Pre-emergence herbicidal action against LOLRI; type: in vivo, Lolium rigidum; conditions: Lolium rigidum, 504 h, 80 g/ha
Method in brief: as §1

SMILES: CCNC(=O)c1c(C(F)F)ccc(C(=O)Nc2nnnn2C)c1SC [Example 1-88]
- pest or weed control at 80 g/ha (POLCO [1]): 80%
- pest or weed control at 5 g/ha (DIGSA [2]; 5 g/ha): 90%
- pest or weed control at 20 g/ha (DIGSA [2]; 20 g/ha): 90%
- pest or weed control at 20 g/ha (POLCO [3]): 80%
- pest or weed control at 80 g/ha (ABUTH [4]): 100%
- pest or weed control at 20 g/ha (ABUTH [4]; dosage 20 g/ha, scored visually after 3 weeks vs untreated controls, 100% = plants have died, 0% = like control plants, read-out: Pre-emergence action against ABUTH (herbicidal activity in percent)): 100%
- pest or weed control at 20 g/ha (STEME [5]; dosage 20 g/ha): 100%
- pest or weed control at 80 g/ha (STEME [5]; dosage 80 g/ha): 100%
- pest or weed control at 20 g/ha (VIOTR [6]): 100%
- pest or weed control at 80 g/ha (VIOTR [6]): 100%
- pest or weed control at 20 g/ha (VIOTR [7]): 80%
- pest or weed control at 20 g/ha (ECHCG [8]; 20 g/ha): 90%
- pest or weed control at 80 g/ha (ECHCG [8]): 100%
- pest or weed control at 5 g/ha (PHBPU [9]; dosage 5 g/ha): 80%
- pest or weed control at 20 g/ha (PHBPU [9]): 90%
- pest or weed control at 5 g/ha (ABUTH [10]; dosage 5 g/ha): 90%
- pest or weed control at 20 g/ha (ABUTH [10]): 90%
- pest or weed control at 20 g/ha (AMARE [11]): 90%
- pest or weed control at 5 g/ha (SETVI [12]): 80%
- pest or weed control at 20 g/ha (SETVI [12]): 90%
- pest or weed control at 20 g/ha (MATIN [13]): 100%
- pest or weed control at 80 g/ha (MATIN [13]): 100%
- pest or weed control at 80 g/ha (ALOMY [14]): 90%
- pest or weed control at 80 g/ha (PHBPU [15]): 90%
- pest or weed control at 20 g/ha (AVEFA [16]): 80%
- pest or weed control at 5 g/ha (VERPE [17]; 5 g/ha): 80%
- pest or weed control at 20 g/ha (VERPE [17]; 20 g/ha): 90%
- pest or weed control at 20 g/ha (ALOMY [18]): 80%
- pest or weed control at 80 g/ha (AVEFA [19]): 90%
- pest or weed control at 80 g/ha (VERPE [20]): 100%
- pest or weed control at 20 g/ha (DIGSA [21]): 100%
- pest or weed control at 80 g/ha (DIGSA [21]): 100%
- pest or weed control at 5 g/ha (ECHCG [22]; dosage 5 g/ha): 80%
- pest or weed control at 20 g/ha (ECHCG [22]): 90%
- pest or weed control at 20 g/ha (STEME [23]; 20 g/ha): 90%
- pest or weed control at 5 g/ha (STEME [23]; dosage 5 g/ha): 90%
- pest or weed control at 80 g/ha (SETVI [24]): 100%
- pest or weed control at 5 g/ha (MATIN [25]): 80%
- pest or weed control at 20 g/ha (MATIN [25]): 80%
- pest or weed control at 20 g/ha (AMARE [26]): 100%
- pest or weed control at 80 g/ha (AMARE [26]): 100%

SMILES: CCn1nnnc1NC(=O)c1ccc(Br)c(C(=O)NC2CC2)c1Cl [Example 2-179]
- pest or weed control at 80 g/ha (LOLRI): 80%
- pest or weed control at 20 g/ha (POLCO [3]): 90%
- pest or weed control at 80 g/ha (ABUTH [4]): 100%
- pest or weed control at 20 g/ha (VIOTR [6]): 100%
- pest or weed control at 80 g/ha (VIOTR [6]): 100%
- pest or weed control at 5 g/ha (VIOTR [7]; 5 g/ha): 90%
- pest or weed control at 20 g/ha (VIOTR [7]): 100%
- pest or weed control at 80 g/ha (ECHCG [8]): 100%
- pest or weed control at 20 g/ha (PHBPU [9]): 80%
- pest or weed control at 20 g/ha (ABUTH [10]): 90%
- pest or weed control at 20 g/ha (AMARE [11]): 100%
- pest or weed control at 5 g/ha (SETVI [12]): 90%
- pest or weed control at 20 g/ha (SETVI [12]): 90%
- pest or weed control at 20 g/ha (MATIN [13]): 100%
- pest or weed control at 80 g/ha (MATIN [13]): 100%
- pest or weed control at 80 g/ha (ALOMY [14]): 100%
- pest or weed control at 20 g/ha (ALOMY [14]; 20 g/ha, scored visually after 3 weeks, 100% = plants have died, 0% = like control plants): 80%
- pest or weed control at 80 g/ha (PHBPU [15]): 80%
- pest or weed control at 20 g/ha (ALOMY [18]): 90%
- pest or weed control at 80 g/ha (AVEFA [19]): 100%
- pest or weed control at 80 g/ha (VERPE [20]): 90%
- pest or weed control at 20 g/ha (DIGSA [21]): 100%
- pest or weed control at 80 g/ha (DIGSA [21]): 100%
- pest or weed control at 20 g/ha (ECHCG [22]): 80%
- pest or weed control at 80 g/ha (SETVI [24]): 100%
- pest or weed control at 5 g/ha (MATIN [25]): 80%
- pest or weed control at 20 g/ha (MATIN [25]): 90%
- pest or weed control at 20 g/ha (AMARE [26]): 100%
- pest or weed control at 80 g/ha (AMARE [26]): 100%
